Target: CSF-1R (Homo sapiens, UniProt P07333)
Assay: Peptide (non-phosphorylated) assay, fluorescence polarization competition immunoassay
Assay type: biochemical
Settings: 0.7 nM CSF-1R, 308 μM SYEGNSYTFIDPTQ peptide, 1 mM ATP, 80 min; mean of at least three determinations; read-out: c-fms Peptide IC50
Procedure, shortened: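 Human CSF-1R kinase reaction started with ATP and run 80 min at room temperature, then stopped with EDTA. Phosphopeptide detected by fluorescence polarization competition using anti-phosphotyrosine antibody and PTK green tracer after 30 min. Controls used 4% DMSO, with EDTA added before reaction start for positive controls.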

Sequence of CSF-1R (P07333 20-972): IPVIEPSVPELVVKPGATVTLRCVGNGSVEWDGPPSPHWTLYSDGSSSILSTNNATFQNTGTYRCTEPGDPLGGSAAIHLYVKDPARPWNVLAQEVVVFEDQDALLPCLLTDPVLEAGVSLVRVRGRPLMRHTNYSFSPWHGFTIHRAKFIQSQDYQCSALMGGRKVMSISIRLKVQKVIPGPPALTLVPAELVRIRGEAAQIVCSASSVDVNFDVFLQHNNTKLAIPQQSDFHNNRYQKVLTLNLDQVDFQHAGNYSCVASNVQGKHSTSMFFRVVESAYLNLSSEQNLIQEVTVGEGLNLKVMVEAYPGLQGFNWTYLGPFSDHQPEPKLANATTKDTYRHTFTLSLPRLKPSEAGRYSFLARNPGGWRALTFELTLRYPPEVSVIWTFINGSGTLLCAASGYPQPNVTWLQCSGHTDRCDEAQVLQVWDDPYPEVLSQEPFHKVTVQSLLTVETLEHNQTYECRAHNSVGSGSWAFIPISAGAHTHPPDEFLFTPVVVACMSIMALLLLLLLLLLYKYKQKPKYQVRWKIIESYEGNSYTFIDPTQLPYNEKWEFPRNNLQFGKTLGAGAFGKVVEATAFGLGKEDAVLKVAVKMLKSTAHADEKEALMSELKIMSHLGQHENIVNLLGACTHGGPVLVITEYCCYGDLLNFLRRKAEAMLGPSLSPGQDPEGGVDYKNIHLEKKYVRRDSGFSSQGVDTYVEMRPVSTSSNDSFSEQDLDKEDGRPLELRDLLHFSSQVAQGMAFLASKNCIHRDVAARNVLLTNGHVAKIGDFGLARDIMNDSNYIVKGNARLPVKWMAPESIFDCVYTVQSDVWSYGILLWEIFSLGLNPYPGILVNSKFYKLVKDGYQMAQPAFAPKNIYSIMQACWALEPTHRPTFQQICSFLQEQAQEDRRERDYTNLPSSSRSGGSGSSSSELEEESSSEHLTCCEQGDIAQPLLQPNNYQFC

SMILES	IC50 [nM]
CONC(=O)c1cn(-c2ccc3c(c2)CCC3)c2nc(Nc3ccc(C4CCN(CC(=O)NS(C)(=O)=O)CC4)cc3)ncc2c1=O [Cpd 87, 8-indan-5-yl-2-{4-[1-(2-methanesulfonylamino-2-oxo-ethyl)-piperidin-4-yl]-phenylamino}-5-oxo-5,8-dihydro-pyrido[2,3-d]pyrimidine-6-carboxylic acid methoxy-amide]	2.4
CONC(=O)c1cn(-c2ccc3c(c2)CCC3)c2nc(Nc3cccc(C(=O)NCCN4CCCC4)c3)ncc2c1=O [Cpd 192, 8-indan-5-yl-5-oxo-2-[3-(2-pyrrolidin-1-yl-ethylcarbamoyl)-phenylamino]-5,8-dihydro-pyrido[2,3-d]pyrimidine-6-carboxylic acid methoxy-amide]	6.3
CONC(=O)c1cn(C2CCCCC2)c2nc(Nc3ccc(N4CC(C)NC(C)C4)cc3)ncc2c1=O (stereo not shown) [Cpd 24, 8-cyclohexyl-2-[4-(3,5-dimethyl-piperazin-1-yl)-phenylamino]-5-oxo-5,8-dihydro-pyrido[2,3-d]pyrimidine-6-carboxylic acid methoxy-amide]	1.8
CONC(=O)c1cn(-c2ccc3c(c2)CCC3)c2nc(Nc3ccc(OC4CN5CCC4CC5)cc3)ncc2c1=O (stereo not shown) [Cpd 264, 2-[4-(1-aza-bicyclo[2.2.2]oct-3-yloxy)-phenylamino]-8-indan-5-yl-5-oxo-5,8-dihydro-pyrido[2,3-d]pyrimidine-6-carboxylic acid methoxy-amide]	0.38
CCc1ccc(-n2cc(C(=O)NOC)c(=O)c3cnc(Nc4cccc(C5(O)CCCN(CC)C5)c4)nc32)cc1 (stereo not shown) [Cpd 278, 2-[3-(1-ethyl-3-hydroxy-piperidin-3-yl)-phenylamino]-8-(4-ethyl-phenyl)-5-oxo-5,8-dihydro-pyrido[2,3-d]pyrimidine-6-carboxylic acid methoxy-amide]	4.9
NCCNC(=O)c1cn(C2CCCC2)c2nc(Nc3ccc(CCN4CCCC4)cc3)ncc2c1=O [Cpd 44, 8-cyclopentyl-5-oxo-2-[4-(2-pyrrolidin-1-yl-ethyl)-phenylamino]-5,8-dihydro-pyrido[2,3-d]pyrimidine-6-carboxylic acid (2-amino-ethyl)-amide]	110
CONC(=O)c1cn(-c2ccc(C)c(C)c2)c2nc(Nc3ccc(CCN4CCCC4=O)cc3)ncc2c1=O [Cpd 50, 8-(3,4-dimethyl-phenyl)-5-oxo-2-{4-[2-(2-oxo-pyrrolidin-1-yl)-ethyl]-phenylamino}-5,8-dihydro-pyrido[2,3-d]pyrimidine-6-carboxylic acid methoxy-amide]	1.2
CONC(=O)c1cn(C2CCCCC2)c2nc(Nc3ccc(C4CCN(C(C)=O)CC4)cc3)ncc2c1=O [Cpd 28, 2-[4-(1-acetyl-piperidin-4-yl)-phenylamino]-8-cyclohexyl-5-oxo-5,8-dihydro-pyrido[2,3-d]pyrimidine-6-carboxylic acid methoxy-amide]	2.2
CCONC(=O)c1cn(C2CCCCC2)c2nc(Nc3ccc(CCN4CCN(C)CC4)cc3)ncc2c1=O [Cpd 19, 8-cyclohexyl-2-{4-[2-(4-methyl-piperazin-1-yl)-ethyl]-phenylamino}-5-oxo-5,8-dihydro-pyrido[2,3-d]pyrimidine-6-carboxylic acid ethoxy-amide]	1
CCONC(=O)c1cn(C2CCCCC2)c2nc(Nc3ccc(CCN4CCCC4)cc3)ncc2c1=O [Cpd 15, 8-cyclohexyl-5-oxo-2-[4-(2-pyrrolidin-1-yl-ethyl)-phenylamino]-5,8-dihydro-pyrido[2,3-d]pyrimidine-6-carboxylic acid ethoxy-amide]	0.19
CC(C)NC(=O)c1cn(-c2ccc3c(c2)CCC3)c2nc(Nc3cccc(N4CCNCC4)c3)ncc2c1=O [Cpd 1, 8-indan-5-yl-5-oxo-2-(3-piperazin-1-yl-phenylamino)-5,8-dihydro-pyrido[2,3-d]pyrimidine-6-carboxylic acid isopropylamide]	4.5
CONC(=O)c1cn(-c2ccc3c(c2)CCC3)c2nc(Nc3ccc([C@@]4(O)CCN(C)C[C@@H]4O)cc3)ncc2c1=O [Cpd 236, 2-{4-[(3S,4S)-(3,4-dihydroxy-1-methyl-piperidin-4-yl)]-phenylamino}-8-indan-5-yl-5-oxo-5,8-dihydro-pyrido[2,3-d]pyrimidine-6-carboxylic acid methoxy-amide]	0.47
CONC(=O)c1cn(-c2ccc3c(c2)CCC3)c2nc(Nc3ccc(CCN4CCC(O)CC4)cc3)ncc2c1=O [Cpd 238, 2-{4-[2-(4-hydroxy-piperidin-1-yl)-ethyl]-phenylamino}-8-indan-5-yl-5-oxo-5,8-dihydro-pyrido[2,3-d]pyrimidine-6-carboxylic acid methoxy-amide]	0.64
CONC(=O)c1cn(-c2ccc(C)c(C)c2)c2nc(Nc3ccc(CCN4CCCC4)cc3)ncc2c1=O [Cpd 51, 8-(3,4-dimethyl-phenyl)-5-oxo-2-[4-(2-pyrrolidin-1-yl-ethyl)-phenylamino]-5,8-dihydro-pyrido[2,3-d]pyrimidine-6-carboxylic acid methoxy-amide]	0.63
CONC(=O)c1cn(-c2ccc3c(c2)CCC3)c2nc(Nc3ccc([C@]4(O)CCN(C)C[C@H]4O)cc3)ncc2c1=O [Cpd 250, 2-{4-[(3R,4R)-(3,4-dihydroxy-1-methyl-piperidin-4-yl)]-phenylamino}-8-indan-5-yl-5-oxo-5,8-dihydro-pyrido[2,3-d]pyrimidine-6-carboxylic acid methoxy-amide]	0.39
CN(C)C(=O)Cc1ccc(Nc2ncc3c(=O)c(C(N)=O)cn(-c4ccc5c(c4)CCC5)c3n2)cc1 [Cpd 118, 2-(4-dimethylcarbamoylmethyl-phenylamino)-8-indan-5-yl-5-oxo-5,8-dihydro-pyrido[2,3-d]pyrimidine-6-carboxylic acid amide]	4.5
CCc1ccc(-n2cc(C(=O)NOC)c(=O)c3cnc(Nc4ccc(CC(=O)NNC)cc4)nc32)cc1 [Cpd 106, 8-(4-ethyl-phenyl)-2-[4-(N′-methyl-hydrazinocarbonylmethyl)-phenylamino]-5-oxo-5,8-dihydro-pyrido[2,3-d]pyrimidine-6-carboxylic acid methoxy-amide]	1.6
CONC(=O)c1cn(-c2ccc3c(c2)CCC3)c2nc(Nc3ccc(CCN4CCN(C(=O)C(F)(F)F)CC4)cc3)ncc2c1=O [Cpd 148, 8-indan-5-yl-5-oxo-2-(4-{2-[4-(2,2,2-trifluoro-acetyl)-piperazin-1-yl]-ethyl}-phenylamino)-5,8-dihydro-pyrido[2,3-d]pyrimidine-6-carboxylic acid methoxy-amide]	1.2
CONC(=O)c1cn(-c2ccc3c(c2)CCC3)c2nc(Nc3cccc(C4(O)CCCNC4)c3)ncc2c1=O (stereo not shown) [Cpd 275, 2-[3-(3-hydroxy-piperidin-3-yl)-phenylamino]-8-indan-5-yl-5-oxo-5,8-dihydro-pyrido[2,3-d]pyrimidine-6-carboxylic acid methoxy-amide]	0.66
CCN1CCC(c2ccc(Nc3ncc4c(=O)c(C(=O)NOC)cn(-c5ccc6c(c5)CCC6)c4n3)cc2)CC1 [Cpd 155, 2-[4-(1-ethyl-piperidin-4-yl)-phenylamino]-8-indan-5-yl-5-oxo-5,8-dihydro-pyrido[2,3-d]pyrimidine-6-carboxylic acid methoxy-amide]	0.12
CC(C)ONC(=O)c1cn(C2CCCC2)c2nc(Nc3ccc(CCN4CCCC4)cc3)ncc2c1=O [Cpd 41, 8-cyclopentyl-5-oxo-2-[4-(2-pyrrolidin-1-yl-ethyl)-phenylamino]-5,8-dihydro-pyrido[2,3-d]pyrimidine-6-carboxylic acid isopropoxy-amide]	4.1
NC(=O)c1cn(-c2ccc3c(c2)CCC3)c2nc(Nc3ccc(CCN4CCCC4)cc3)ncc2c1=O [Cpd 5, 8-indan-5-yl-5-oxo-2-[4-(2-pyrrolidin-1-yl-ethyl)-phenylamino]-5,8-dihydro-pyrido[2,3-d]pyrimidine-6-carboxylic acid amide]	1.5
CONC(=O)c1cn(-c2ccc3c(c2)CCC3)c2nc(Nc3ccc(C4CCN(CC(=O)O)CC4)cc3)ncc2c1=O [Cpd 85, {4-[4-(8-indan-5-yl-6-methoxycarbamoyl-5-oxo-5,8-dihydro-pyrido[2,3-d]pyrimidin-2-ylamino)-phenyl]-piperidin-1-yl}-acetic acid]	2.2
CCc1ccc(-n2cc(C(=O)NOC)c(=O)c3cnc(Nc4ccc(CCN5CCCC(F)(F)C5)cc4)nc32)cc1 [Cpd 232, 2-{4-[2-(3,3-difluoro-piperidin-1-yl)-ethyl]-phenylamino}-8-(4-ethyl-phenyl)-5-oxo-5,8-dihydro-pyrido[2,3-d]pyrimidine-6-carboxylic acid methoxy-amide]	0.72
CCc1ccc(-n2cc(C(=O)NOC)c(=O)c3cnc(Nc4cccc(OC5CN6CCC5CC6)c4)nc32)cc1 (stereo not shown) [Cpd 247, 2-[3-(1-aza-bicyclo[2.2.2]oct-3-yloxy)-phenylamino]-8-(4-ethyl-phenyl)-5-oxo-5,8-dihydro-pyrido[2,3-d]pyrimidine-6-carboxylic acid methoxy-amide]	0.59
CONC(=O)c1cn(-c2ccc3c(c2)CCC3)c2nc(Nc3ccc(C4CCN(CC(F)(F)C(F)(F)F)CC4)cc3)ncc2c1=O [Cpd 293, 8-indan-5-yl-5-oxo-2-{4-[1-(2,2,3,3,3-pentafluoro-propyl)-piperidin-4-yl]-phenylamino}-5,8-dihydro-pyrido[2,3-d]pyrimidine-6-carboxylic acid methoxy-amide]	2.9
CONC(=O)c1cn(-c2ccc3c(c2)CCC3)c2nc(Nc3ccc(CCN4CCN(C)C(=O)C4)cc3)ncc2c1=O [Cpd 220, 8-indan-5-yl-2-{4-[2-(4-methyl-3-oxo-piperazin-1-yl)-ethyl]-phenylamino}-5-oxo-5,8-dihydro-pyrido[2,3-d]pyrimidine-6-carboxylic acid methoxy-amide]	0.75
CONC(=O)c1cn(-c2cnc3c(c2)CCC3)c2nc(Nc3ccc(C4CCN(C)CC4)cc3)ncc2c1=O [Cpd 225, 8-(6,7-dihydro-5H-[1]pyrindin-3-yl)-2-[4-(1-methyl-piperidin-4-yl)-phenylamino]-5-oxo-5,8-dihydro-pyrido[2,3-d]pyrimidine-6-carboxylic acid methoxy-amide]	7
